For ten molecules, TGI results are on record in PubChem BioAssay (NCI).

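In this assay, cells in 96-well plates receive the compound at five concentrations for 48 hours. Endpoints are linearly interpolated between the surrounding concentrations. TGI: concentration producing complete growth inhibition.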

Some test systems named below: ACHN renal; CCRF-CEM leukemia; LOX IMVI melanoma; M14 melanoma; NCI-H23 lung; OVCAR-4 ovarian; SF-539 CNS; SNB-78 CNS; TK-10 renal; HCC-2998 colon; NCI-H522 lung; SK-MEL-2 melanoma.
What all share (test): NCI-60 cell line screen, 48 h

Turning to `CC1OC(n2ccc(=O)[nH]c2=O)C=C(OC(=O)c2ccccc2)C1=O` (stereo not given), the TGI was more than 100 µM with ACHN renal; more than 100 µM with CCRF-CEM leukemia; more than 100 µM in the assay on LOX IMVI melanoma; more than 100 µM in the assay on M14 melanoma; more than 100 µM with NCI-H23 lung; 36.8 µM in the assay with OVCAR-4 ovarian. For the same molecule, the TGI with SF-539 CNS, in the assay with SNB-78 CNS and in the assay on TK-10 renal was more than 100 µM each time.

Take `N#CCCN(c1ccc(/C=C2\N=C(Cc3ccccc3)OC2=O)cc1)S(=O)(=O)c1ccccc1`: the TGI with ACHN renal, with CCRF-CEM leukemia, in the assay on HCC-2998 colon, in the assay on LOX IMVI melanoma, in the assay with M14 melanoma and in the assay on NCI-H23 lung was more than 100 µM in each case. For the same molecule, the TGI with NCI-H522 lung, with SF-539 CNS, with SK-MEL-2 melanoma, in the assay with SNB-78 CNS and in the assay with TK-10 renal was more than 100 µM each time.

With `CCCOC(=O)C1CCC(=O)N1C(=O)C(C)Cl` (stereo not given), the TGI with ACHN renal, in the assay on CCRF-CEM leukemia, in the assay on HCC-2998 colon, in the assay with LOX IMVI melanoma, in the assay on M14 melanoma and with NCI-H23 lung was more than 100 µM in each case. Besides, the TGI in the assay on NCI-H522 lung, in the assay with OVCAR-4 ovarian, in the assay with SK-MEL-2 melanoma, with SNB-78 CNS and in the assay on TK-10 renal was more than 100 µM in each case.

Turning to `Nc1nc(NCCO)c(N=O)c(=O)[nH]1`, the TGI with ACHN renal, in the assay on CCRF-CEM leukemia, in the assay with LOX IMVI melanoma, in the assay on M14 melanoma, with NCI-H522 lung and in the assay with OVCAR-4 ovarian was more than 100 µM each time. Further, the TGI in the assay on SF-539 CNS, with SK-MEL-2 melanoma, in the assay on SNB-78 CNS and in the assay on TK-10 renal was more than 100 µM each time.

As to `CCCCCCCc1cc(OC(=O)c2c(C)cc(OC)cc2O)cc(O)c1C(=O)O`, the TGI with ACHN renal is 62.8 µM; in the assay with CCRF-CEM leukemia, 78.6 µM; with HCC-2998 colon, 35.6 µM; with LOX IMVI melanoma, 48.7 µM; in the assay with M14 melanoma it was 36.6 µM; in the assay with NCI-H23 lung it was 43.1 µM. For the same molecule, the TGI in the assay with NCI-H522 lung is 48.3 µM; with OVCAR-4 ovarian, 78.2 µM; in the assay with SF-539 CNS it was 32.6 µM; with SK-MEL-2 melanoma it was 36.9 µM; in the assay on SNB-78 CNS, more than 100 µM; in the assay on TK-10 renal, 90.2 µM.

In the case of `O=C1[C@@H]2C(c3ccc(Cl)cc3Cl)=NO[C@@H]2C(=O)N1c1ccc(Cc2ccc(N3C(=O)[C@H]4C(c5ccc(Cl)cc5Cl)=NO[C@H]4C3=O)cc2)cc1`, the TGI in the assay on CCRF-CEM leukemia, with HCC-2998 colon, with LOX IMVI melanoma, with M14 melanoma, in the assay on NCI-H23 lung and with OVCAR-4 ovarian was more than 100 µM each time. Further, the TGI in the assay on SF-539 CNS, with SK-MEL-2 melanoma, in the assay on SNB-78 CNS and with TK-10 renal was more than 100 µM each time.

Turning to `N#CC(C(=O)/C(=N/NC(=O)c1ccccc1O)C(C#N)c1ccccc1)c1ccccc1` (stereo not given), the TGI in the assay with ACHN renal, in the assay with HCC-2998 colon, with LOX IMVI melanoma, with M14 melanoma, in the assay with NCI-H23 lung and in the assay with OVCAR-4 ovarian was more than 100 µM in each case. The TGI with SF-539 CNS, in the assay on SK-MEL-2 melanoma, in the assay with SNB-78 CNS and in the assay with TK-10 renal was more than 100 µM each time.

Consider `Cc1ccc(N=NC2S/C(=C(\C#N)c3nc4ccccc4[nH]3)N(c3ccccc3)C2=O)cc1` (stereo not given), for which the TGI in the assay with ACHN renal, in the assay on CCRF-CEM leukemia, in the assay with LOX IMVI melanoma, in the assay on M14 melanoma, with NCI-H23 lung and with NCI-H522 lung was more than 100 µM in each case. Besides, the TGI with OVCAR-4 ovarian, in the assay with SF-539 CNS, with SK-MEL-2 melanoma, in the assay on SNB-78 CNS and in the assay with TK-10 renal was more than 100 µM in each case.

As for `NC(=O)c1cccc(C2OC(COP(=O)(O)O)C(O)C2O)c1` (stereo not given), the TGI with ACHN renal, in the assay with CCRF-CEM leukemia, in the assay on HCC-2998 colon, in the assay with LOX IMVI melanoma, in the assay with M14 melanoma and in the assay with NCI-H23 lung was more than 50 µM in each case. Also, the TGI with NCI-H522 lung, in the assay with SF-539 CNS, in the assay on SK-MEL-2 melanoma, in the assay with SNB-78 CNS and with TK-10 renal was more than 50 µM each time.

Regarding `CN(C)CCC(O)(c1ccccc1)C(O)(CCN(C)C)c1ccccc1` (stereo not given), the TGI is more than 100 µM with ACHN renal; more than 100 µM in the assay on CCRF-CEM leukemia; more than 100 µM in the assay on HCC-2998 colon; 32.8 µM in the assay on M14 melanoma; more than 100 µM with NCI-H23 lung; more than 100 µM in the assay with NCI-H522 lung. Besides, the TGI in the assay on OVCAR-4 ovarian, with SK-MEL-2 melanoma, in the assay with SNB-78 CNS and in the assay on TK-10 renal was more than 100 µM in each case.
